Patent US20240018136A1, “CDK Inhibitors And Their Use As Pharmaceuticals” (Prelude Therapeutics, Incorporated, priority 2022, published 2024)

How the values were obtained:
[1] = molecular target: CDK2/Cyclin E2 (Homo sapiens, UniProt P24941); assay: CDK2/CyclinE2 enzymatic activity assay (TR-FRET); format: biochemical; settings: ATP 1 mM final, read-out: CDK2_E1 IC50
Procedure: CDK2/CyclinE2 Enzymatic Activity Assay
(§1) The inhibitory activity of compounds was evaluated in vitro using TR-FRET assay with white 384-well low volume microplate (Greiner Bio-One). CDK2/Cyclin E2 catalyzed phosphorylation of peptide in the presence and absence of compounds was measured and used in IC50 determination. Recombinant protein complex CDK2/Cyclin E2, expressed from insect cell, was purchased from ProQinase. Testing compounds were dissolved in DMSO at 1 mM and tested in 9-dose IC50 mode. The reaction mixture was prepared by mixing CDK2/CyclinE2 (1 nM final), ULight-4E-BP1 (50 nM final, Perkinelmer, TRF0128-D), and ATP (1 mM final) in assay buffer (20 mM of HEPES pH 7.4, 1 mM of EGTA, 0.05% BSA, 0.005% Tween 20, and 1 mM TCEP). The compound of interest in DMSO was added to each well in 3-fold serial dilution by dispenser (TECAN D300E) to make a 9.9 μL of reaction mixture. After 20 minutes preincubation at room temperature, 0.1 μL MgCl2 (10 mM final) was added to initiate the reaction. Following a 45 minute incubation at 37° C., the reaction was stopped by addition of 2 μL of quenching buffer consisting of Lance detection buffer (Perkinelmer CR97-100C), LANCE Ultra Europium-anti-P-4E-BP1 (Perkinelmer, TRF0216-D), EDTA, and incubate at room temperature for an additional 60 minutes in the dark. The reaction signal was measured by Envision multimode plate reader (PerkinElmer, 2102-0010). IC50 values were determined by fitting the data to the standard 4 parameters with Hill Slope using GraphPad Prism software.

[2] = tested on: OVCAR3 p-RB; assay: pRB ICW assay in OVCAR3 cells; format: cell-based; settings: Homo sapiens, OVCAR-3, incubated with compound for 2 hours
Procedure: pRB ICW Assay in OVCAR3 Cells
OVCAR3 cells were maintained in RPMI (Corning, Catalog #: 10-040-CV) supplemented with 10% v/v FBS (Gibco, Catalog #: 26140-079), 1% v/v Penicillin Streptomycin (Gibco, Catalog #15140-122.) OVCAR3 cells grown at log phase were trypsinized, counted, and resuspended in fresh medium to reach a final density of 6.7e4 cells/mL and 75 μL of culture were dispensed into a 384-well plate (Falcon, cat #353962) using Multidrop Combi dispenser (Thermo Scientific). The next day, compounds were dispensed as a 9-point, ½ log serial dilution using a Tecan digital dispenser (D300e), and cells were incubated with compound for 2 hours in a humidified incubator at 37° C. A reference compound at a final concentration of 10 μM was used as a control for maximum inhibition. Each compound was tested in duplicates in each experiment. At the end of the incubation, 25 μL of 16% paraformaldehyde (Electron Microscopy, cat #15710) was slowly added to each well and the plate was incubated at room temperature (RT) for 30 minutes to fix cells. Cells were then permeabilized by incubating with 50 μL/well of wash buffer (lx PBS with 0.1% Triton X-100) 5×5 minutes, followed by 1 hour blocking with 30 μL/well of Odyssey blocking buffer (Li-COR, cat #927-40000), all at RT. Anti-phosphor RB antibody (Cell signaling 8516S) was diluted 1:1000 in Odyssey blocking buffer and 20 μL was added to all wells and incubated overnight in 4° C. with gently rocking. The next day, cells were washed 5×5 min with 50 μL/well of wash buffer, followed with 1 hour incubation with secondary antibody and DRAQ5 diluted in Odyssey blocking buffer (1:500 dilution for secondary antibody and 1:2000 dilution for DRAQ5), 5×5 min washes, and one last wash with water. Plates were dried in 37° C. oven for 5 min and scanned using Li-COR Odyssey CLx imaging system to acquire intensities at 700 and 800 nm channels.

[3] = molecular target: T1, CDK4/Cyclin D1 (Homo sapiens, UniProt P11802); assay: CDK4/CyclinD1 enzymatic activity assay (TR-FRET); format: biochemical; settings: ATP 2 mM final, read-out: CDK4_D1 IC50
T1 construct: purchased ProQinase; host or cells: insect cell
T1 sequence (P11802 whole entry): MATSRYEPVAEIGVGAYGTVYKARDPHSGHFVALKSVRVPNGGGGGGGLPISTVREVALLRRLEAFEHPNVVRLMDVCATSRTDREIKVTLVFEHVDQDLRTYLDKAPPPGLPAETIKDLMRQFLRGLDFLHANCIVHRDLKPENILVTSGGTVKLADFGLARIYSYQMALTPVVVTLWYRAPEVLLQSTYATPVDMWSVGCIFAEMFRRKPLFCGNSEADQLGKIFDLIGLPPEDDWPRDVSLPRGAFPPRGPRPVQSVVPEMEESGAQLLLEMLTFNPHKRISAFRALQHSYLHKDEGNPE
T1 sequence (P24385 whole entry partner): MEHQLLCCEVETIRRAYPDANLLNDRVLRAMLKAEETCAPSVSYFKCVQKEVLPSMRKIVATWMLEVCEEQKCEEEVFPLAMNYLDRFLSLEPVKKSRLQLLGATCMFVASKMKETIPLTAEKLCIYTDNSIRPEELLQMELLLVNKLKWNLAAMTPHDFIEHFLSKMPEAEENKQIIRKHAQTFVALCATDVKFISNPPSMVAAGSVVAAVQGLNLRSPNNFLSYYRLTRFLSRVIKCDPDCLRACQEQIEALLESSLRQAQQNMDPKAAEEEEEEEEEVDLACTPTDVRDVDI
Procedure: CDK4/CyclinD1 Enzymatic Activity Assay
as §1, with “Bio-One). CDK4/Cyclin D1” for “Bio-One). CDK2/Cyclin E2”, “in IC5” for “in IC50”, “complex CDK4/Cyclin D1,” for “complex CDK2/Cyclin E2,”, “mixing CDK4/CyclinD1” for “mixing CDK2/CyclinE2”, “ULight-4E-BP1 (100” for “ULight-4E-BP1 (50”, “ATP (2” for “ATP (1”

Row | Compound | IC50 [1] [nM] | IC50 [2] [nM] | IC50 [3] [nM]
1 | CC(C)N(C)c1ncc(-c2nc(NC3CCN(S(C)(=O)=O)CC3)ncc2C(F)(F)F)s1 [Example 22, N-isopropyl-N-methyl-5-(2-((1-(methylsulfonyl)piperidin-4-yl)amino)-5-(trifluoromethyl)pyrimidin-4-yl)thiazol-2-amine] | ≤ 100 | 100 to 1000 | ≤ 100
2 | CS(=O)(=O)N1CCC(Nc2ncc(C(F)(F)F)c(-c3cnc(C4=CCCC4)s3)n2)CC1 [Example 4, 4-[2-(Cyclopenten-1-yl)-1,3-thiazol-5-yl]-N-(1-methylsulfonylpiperidin-4-yl)-5-(trifluoromethyl)pyrimidin-2-amine] | ≤ 100 | > 1000 | ≤ 100
3 | CC(C)(O)Cc1ncc(-c2nc(NC3CCN(S(=O)(=O)CCCN4CCOCC4)CC3)ncc2C(F)(F)F)s1 [Example 79, 2-methyl-1-(5-(2-((1-((3-morpholinopropyl)sulfonyl)piperidin-4-yl)amino)-5-(trifluoromethyl)pyrimidin-4-yl)thiazol-2-yl)propan-2-ol] | ≤ 100 | 100 to 1000 | ≤ 100
4 | CC(O)c1ncc(-c2nc(NC3CCN(S(C)(=O)=O)CC3)ncc2C(F)(F)F)s1 (centres unmarked) [Example 81, 1-(5-(2-((1-(methylsulfonyl)piperidin-4-yl)amino)-5-(trifluoromethyl)pyrimidin-4-yl)thiazol-2-yl)ethan-1-ol] | ≤ 100 | 100 to 1000 | ≤ 100
5 | CS(=O)(=O)N1CCC(Nc2ncc(C(F)(F)F)c(-c3cnc(C4CCCC4)s3)n2)CC1 [Example 5, 4-(2-Cyclopentyl-1,3-thiazol-5-yl)-N-(1-methylsulfonylpiperidin-4-yl)-5-(trifluoromethyl)pyrimidin-2-amine] | ≤ 100 | – | ≤ 100
6 | Cc1ncc(-c2nc(NC3CCN(S(C)(=O)=O)CC3)ncc2C(F)(F)F)o1 [Example 66, 4-(2-methyl-1,3-oxazol-5-yl)-N-(1-methylsulfonylpiperidin-4-yl)-5-(trifluoromethyl)pyrimidin-2-amine] | 100 to 1000 | – | > 1000
7 | CS(=O)(=O)N1CCC(Nc2ncc(C(F)(F)F)c(-c3cnc(-c4ccccc4CO)s3)n2)CC1 [Example 23, [2-[5-[2-[(1-Methylsulfonylpiperidin-4-yl)amino]-5-(trifluoromethyl)pyrimidin-4-yl]-1,3-thiazol-2-yl]phenyl]methanol] | ≤ 100 | – | –
8 | Cc1ncc(-c2nc(NC3CCN(S(C)(=O)=O)CC3)ncc2C(F)F)s1 [Example 43, 5-(Difluoromethyl)-N-(1-methylsulfonylpiperidin-4-yl)-4-(2-methyl-1,3-thiazol-5-yl)pyrimidin-2-amine] | ≤ 100 | – | 100 to 1000
9 | Cc1nc(C)c(-c2nc(NC3CCN(S(C)(=O)=O)CC3)ncc2F)s1 [Example 16, 4-(2,4-dimethylthiazol-5-yl)-5-fluoro-N-(1-(methylsulfonyl)piperidin-4-yl)pyrimidin-2-amine] | 100 to 1000 | – | > 1000
10 | CC(C)NC(=O)Nc1ncc(-c2nc(NC3CCN(S(C)(=O)=O)CC3)ncc2C(F)(F)F)s1 [Example 56, 1-[5-[2-[(1-Methylsulfonylpiperidin-4-yl)amino]-5-(trifluoromethyl)pyrimidin-4-yl]-1,3-thiazol-2-yl]-3-propan-2-ylurea] | 100 to 1000 | – | > 1000

The next lines start with the values.

Row | IC50 [1] [nM] | IC50 [2] [nM] | IC50 [3] [nM] | Compound
11 | ≤ 100 | ≤ 100 | ≤ 100 | CC(C)(O)Cc1ncc(-c2nc(NC3CCN(S(C)(=O)=O)CC3)ncc2C(F)(F)F)s1 [Example 68, 2-methyl-1-(5-(2-((1-(methylsulfonyl)piperidin-4-yl)amino)-5-(trifluoromethyl)pyrimidin-4-yl)thiazol-2-yl) propan-2-ol]
12 | ≤ 100 | ≤ 100 | ≤ 100 | CC(O)c1ncc(-c2nc(N[C@H]3CCN(S(=O)(=O)c4cnn(C)c4)C[C@H]3F)ncc2C(F)(F)F)s1 (stereo partly drawn) [Example 98, 1-(5-(2-(((3R,4S)-3-fluoro-1-((1-methyl-1H-pyrazol-4-yl)sulfonyl)piperidin-4-yl)amino)-5-(trifluoromethyl)pyrimidin-4-yl)thiazol-2-yl)ethan-1-ol]
13 | ≤ 100 | 100 to 1000 | ≤ 100 | CS(=O)(=O)N1CCC(Nc2ncc(C(F)(F)F)c(-c3cnc(NC4COC4)s3)n2)CC1 [Example 38, 5-[2-[(1-Methylsulfonylpiperidin-4-yl)amino]-5-(trifluoromethyl)pyrimidin-4-yl]-N-(oxetan-3-yl)-1,3-thiazol-2-amine]
14 | 100 to 1000 | – | > 1000 | CCOC(=O)Nc1ncc(-c2nc(NC3CCN(S(C)(=O)=O)CC3)ncc2C(F)(F)F)s1 [Example 55, Ethyl N-[5-[2-[(1-methylsulfonylpiperidin-4-yl)amino]-5-(trifluoromethyl)pyrimidin-4-yl]-1,3-thiazol-2-yl]carbamate]
15 | ≤ 100 | – | 100 to 1000 | COCc1ncc(-c2nc(NC3CCN(S(C)(=O)=O)CC3)ncc2C(F)(F)F)s1 [Example 53, 4-[2-(Methoxymethyl)-1,3-thiazol-5-yl]-N-(1-methylsulfonylpiperidin-4-yl)-5-(trifluoromethyl)pyrimidin-2-amine]
16 | ≤ 100 | – | ≤ 100 | CC(C)Oc1ncc(-c2nc(NC3CCN(S(C)(=O)=O)CC3)ncc2C(F)F)s1 [Example 51, 5-(Difluoromethyl)-N-(1-methylsulfonylpiperidin-4-yl)-4-(2-propan-2-yloxy-1,3-thiazol-5-yl)pyrimidin-2-amine]
17 | 100 to 1000 | – | 100 to 1000 | CCOc1ncc(-c2nc(NC3CCN(S(C)(=O)=O)CC3)ncc2C(F)F)s1 [Example 49, 5-(Difluoromethyl)-4-(2-ethoxy-1,3-thiazol-5-yl)-N-(1-methylsulfonylpiperidin-4-yl)pyrimidin-2-amine]
18 | ≤ 100 | – | 100 to 1000 | Cc1c(-c2ncc(-c3nc(NC4CCN(S(C)(=O)=O)CC4)ncc3C(F)(F)F)s2)cnn1CCO [Example 18, 2-[5-methyl-4-[5-[2-[(1-methylsulfonylpiperidin-4-yl)amino]-5-(trifluoromethyl)pyrimidin-4-yl]-1,3-thiazol-2-yl]pyrazol-1-yl]ethanol]
19 | ≤ 100 | – | 100 to 1000 | COc1ncc(-c2nc(NC3CCN(S(C)(=O)=O)CC3)ncc2C(F)F)s1 [Example 50, 5-(difluoromethyl)-4-(2-methoxy-1,3-thiazol-5-yl)-N-(1-methylsulfonyl-piperidin-4-yl)pyrimidin-2-amine]
